Test results taken from patent US5877147A, “Compounds for medicinal use” (Peptech (UK) Limited, priority 1993, dated 1999).

Experiments:
IgA = IgA levels in treated patients (mucosal immunity); format: in vivo, human; conditions: in words
[1] = system: immunoglobulin (Ig) in serum; conditions: 3 days after 1 mg GMDP orally x 10 days
Excerpt: (§1) The study group consisted of 50 women between 20 and 30 years of age (mean 26.7) with HPV of the cervix. The duration of the disease varied from 1 to 3.5 years. […] To control for variation in Ig content of cervical secretions during the menstrual cycle, treatment was commenced 8-10 days after the beginning of the period.
(§2) A number of immunological parameters were monitored before the beginning of treatment; immunoglobulin (Ig) in serum (radial immunodiffusion), Ig in saliva and genital tract secretions (ELISA), subpopulations of immune cells (immunocytofluorimetry).
(§3) Follow up studies on the clinical progression of the HPV infection were performed
(§4) Control values for immunological parameters were also taken from a group of women free of HPV infection. Their age range was 20 to 30 years with a mean of 25.6.

[2] = system: Ig in saliva and genital tract secretions; conditions: 3 days after 1 mg GMDP orally x 10 days
Excerpt: as §1, §2, §3, §4

[3] = system: subpopulations of immune cells; conditions: blood, 3 days after 1 mg GMDP orally x 10 days
Excerpt: as §1, §2, §3, §4

mice = conditions: cited from earlier work
[4] = that of MDP = 100%; cited from earlier work
[5] = system: Human Papilloma Virus (HPV) infection of the uterine cervix
Procedure: as §1, §3

melanoma metastases = conditions: orally administered, non-liposome encapsulated; cited from earlier work
[6] = system: lung and peritoneal macrophages; conditions: orally administered, non-liposome encapsulated; cited from earlier work

N-acetyl-D-glucosaminyl-(β1-4)-N-acetylmuramyl-L-alanyl-D-glutamic acid [GMDP-A]
levels of IgA in treated patients (IgA): especially high

CC(=O)NC1C(OC2C(CO)OC(O)C(NC(C)=O)C2OC(C)C(=O)NC(C)C(=O)NC(CCC(=O)O)C(N)=O)OC(CO)C(O)C1O [GMDP, N-acetyl-D-glucosaminyl-(β1-4)-N-acetylmuramyl-L-alanyl-D-isoglutamine]
Serum IgM, after treatment ([1]; before 123.8 ± 10.4, spread 11.2, p<0.01 vs before): 160.8 mg/dL
Serum IgA, after treatment ([1]; before 216.0 ± 16.8, spread 18.2): 228.7 mg/dL
Serum IgG, after treatment ([1]; before 1424 ± 48, spread 51, p<0.01 vs before): 1258 mg/dL
Mucus of uterine cervix IgD, after treatment ([2]; before 0.326 ± 0.16, spread 0.17): 0.315 mg/dL
Saliva IgM, after treatment ([2]; before 3.17 ± 1.05, spread 1.11): 1.65 mg/dL
Mucus of uterine cervix IgM, after treatment ([2]; before 3.18 ± 2.21, spread 1.65): 1.8 mg/dL
Mucus of uterine cervix IgG, after treatment ([2]; before 9.57 ± 2.19, spread 3.01): 12.01 mg/dL
Saliva IgA, after treatment ([2]; before 11.45 ± 3.48, spread 2.98): 13.16 mg/dL
Saliva IgG, after treatment ([2]; before 16.19 ± 4.01, spread 4.88): 15.05 mg/dL
Saliva sIgA, after treatment ([2]; before 26.53 ± 5.23, spread 4.96): 25.46 mg/dL
B-cells %, after treatment ([3]; before 5.30 ± 0.8, spread 1.07): 5.08%
CD16 +ve %, after treatment ([3]; before 16.3 ± 2.1, spread 2.3): 13.1%
CD8 +ve %, after treatment ([3]; before 24.2 ± 2.87, spread 3.17): 20.3%
Lymphocytes %, after treatment ([3]; before 34.11 ± 3.16, spread 2.68): 35.77%
CD4 +ve %, after treatment ([3]; before 34.6 ± 3.1, spread 3.8): 41.8%
CD3 ve %, after treatment ([3]; before 55.8 ± 4.1, spread 3.6): 59.12%
B-cells absolute, after treatment ([3]; before 80.1 ± 12.1, spread 21.7): 103.8
CD16 +ve absolute, after treatment ([3]; before 246.3 ± 31.7, spread 47.1): 268.1
CD8 +ve absolute, after treatment ([3]; before 365.7 ± 43.4, spread 64.9): 415.3
levels of IgA in treated patients (IgA): especially high
LD50 (acute toxicity) (mice): 7000 mg/kg
pyrogenicity relative to MDP [4]: about 50%
Recurrence of HPV, number of patients ([5]; 30 in group, 1 mg GMDP orally daily for 10 days, adjunct therapy, placebo 7 of 20): 3
Recurrence of HPV, % of group ([5]; 30 in group, 1 mg GMDP orally daily for 10 days, adjunct therapy, placebo 35%): 10%
Full Cure, number of patients ([5]; 30 in group, 1 mg GMDP orally daily for 10 days, adjunct to antibiotics, laser and cryotherapy, placebo 13 of 20): 27
Full Cure, % of group ([5]; 30 in group, 1 mg GMDP orally daily for 10 days, adjunct to laser and cryotherapy, placebo 65%): 90%
rate of cure versus placebo group ([5]; GMDP as adjunct to laser and cryotherapy, in words): increase in the rate of cure

CCCCCCCCCCCCCCCC(=O)OC[C@H](COP(=O)([O-])OCCNC(=O)[C@H](C)NC(=O)CC[C@@H](NC(=O)[C@H](C)NC(=O)[C@@H](C)O[C@H]1[C@H](O)[C@@H](CO)OC(O)[C@@H]1NC(C)=O)C(N)=O)OC(=O)CCCCCCCCCCCCCCC.O.[Na+] (stereo partly drawn) [MTP-PE, N-acetyl-muramyl-L-alanyl-D-isoglutaminyl-L-alanyl-2-(1',2'-dipalmitoyl-sn-glycero-3'-hydroxy-phosphoryloxy)ethylamide, monosodium]
eradicating well established melanoma metastases (melanoma metastases): not effective
inhibiting lung and lymph node metastasis (melanoma metastases): effective
tumouricidal activity in lung and peritoneal macrophages [6]: produced tumouricidal activity
